Laboratory results published in the supplement of paper PMC10307832.

Key:
Test in all cases: relative viability (nuclei count vs DMSO), 5 days (fraction); higher = more cells survive
[1] = compound: O=C(/C=C/c1cccnc1)NCCCCC1CCN(C(=O)c2ccccc2)CC1 [Daporinad] + Nc1nc2[nH]cc(CCc3ccc(C(=O)N[C@@H](CCC(=O)O)C(=O)O)cc3)c2c(=O)[nH]1 [Pemetrexed] (partner 0.2 µM)
Procedure, shortened: (§1)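 Relative viability equals treated-well nuclei counts divided by vehicle-well nuclei counts. Counts came from 4× images of lung cancer cell lines grown in 1536-well plates for 5 days after pin-tool dosing on the day after seeding. Dosing used one drug alone or a fixed anchor-drug dose plus five library-drug doses (not always all listed) in √10 steps, and values are medians of duplicate plates.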

[2] = compound: COc1cc(Nc2ncc(F)c(Nc3ccc4c(n3)NC(=O)C(C)(C)O4)n2)cc(OC)c1OC [R406] + COc1cccc2cc(-c3nc([C@H]4CC[C@H](C(=O)O)CC4)n4ncnc(N)c34)[nH]c12 [OSI-027] (partner 0.5 µM)
Procedure, shortened: as §1

[3] = compound: O=C(/C=C/c1cccnc1)NCCCCC1CCN(C(=O)c2ccccc2)CC1 [Daporinad]
Procedure, shortened: (§2)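 Viability was defined as treated-well nuclei divided by vehicle-well nuclei, with the median taken over replicate plates. Cells from lung cancer lines sat overnight at 37 °C in 1536-well plates, received five √10-spaced library-drug doses by pinning on vehicle-anchored plates, and grew 5 days without medium change before one-step fixation, permeabilisation and Hoechst staining, 4× imaging and MetaXpress nuclear counts. Only plates with control CV under 25% and at least one doubling were kept.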

[4] = compound: COc1cc(Nc2ncc(F)c(Nc3ccc4c(n3)NC(=O)C(C)(C)O4)n2)cc(OC)c1OC [R406]
Procedure, shortened: as §2

PC-14
relative viability ([1]; first compound 0.0005 µM): 0.0976
relative viability ([1]; first compound 0.001581 µM): 0.126
relative viability ([1]; first compound 0.005 µM): 0.153
relative viability ([1]; first compound 0.01581 µM): 0.146
relative viability ([2]; first compound 0.08 µM): 0.795
relative viability ([2]; first compound 0.253 µM): 1.11
relative viability ([2]; first compound 0.8 µM): 1.41
relative viability ([2]; first compound 2.53 µM): 0.428
relative viability ([2]; first compound 8 µM): 0.121
relative viability ([3]; 0.0005 µM): 0.951
relative viability ([3]; 0.001581 µM): 1.08
relative viability ([3]; 0.005 µM): 1.08
relative viability ([3]; 0.01581 µM): 0.871
relative viability ([4]; 0.08 µM): 0.968
relative viability ([4]; 0.253 µM): 1.18
relative viability ([4]; 0.8 µM): 1.09
relative viability ([4]; 2.53 µM): 0.759
relative viability ([4]; 8 µM): 0.601

RERF-LC-KJ
relative viability ([1]; first compound 0.0005 µM): 0.465
relative viability ([1]; first compound 0.001581 µM): 0.482
relative viability ([1]; first compound 0.005 µM): 0.587
relative viability ([1]; first compound 0.01581 µM): 0.568
relative viability ([2]; first compound 0.08 µM): 0.609
relative viability ([2]; first compound 0.253 µM): 0.588
relative viability ([2]; first compound 0.8 µM): 0.623
relative viability ([2]; first compound 2.53 µM): 0.432
relative viability ([2]; first compound 8 µM): 0.392
relative viability ([3]; 0.0005 µM): 0.923
relative viability ([3]; 0.001581 µM): 1.04
relative viability ([3]; 0.005 µM): 1.07
relative viability ([3]; 0.01581 µM): 1.02
relative viability ([4]; 0.08 µM): 0.98
relative viability ([4]; 0.253 µM): 1.06
relative viability ([4]; 0.8 µM): 1.06
relative viability ([4]; 2.53 µM): 0.781
relative viability ([4]; 8 µM): 0.827

SK-LU-1
relative viability ([1]; first compound 0.0005 µM): 1.04
relative viability ([1]; first compound 0.001581 µM): 0.998
relative viability ([1]; first compound 0.005 µM): 1.09
relative viability ([1]; first compound 0.01581 µM): 0.941
relative viability ([2]; first compound 0.08 µM): 0.312
relative viability ([2]; first compound 0.253 µM): 0.337
relative viability ([2]; first compound 0.8 µM): 0.424
relative viability ([2]; first compound 2.53 µM): 0.153
relative viability ([2]; first compound 8 µM): 0.0841
relative viability ([3]; 0.0005 µM): 1.06
relative viability ([3]; 0.001581 µM): 1.11
relative viability ([3]; 0.005 µM): 1.19
relative viability ([3]; 0.01581 µM): 1.12
relative viability ([4]; 0.08 µM): 0.955
relative viability ([4]; 0.253 µM): 1.16
relative viability ([4]; 0.8 µM): 1.15
relative viability ([4]; 2.53 µM): 0.513
relative viability ([4]; 8 µM): 0.386
